In patent US9315531B2, “Titanocene-gold derivatives comprising thiolato ligands” (Research Foundation of the City University of New York, priority 2014, dated 2016):

Legend:
Caki-1 cells = assay: Annexin V/PI apoptosis assay; assay type: cell-based, human; conditions: Caki-1, 6 hours incubation, 10 μM
Method: To gain insight concerning the type of cell death that is induced in cancer cell lines, apoptosis assays were performed with Caki-1 cells with compound 2 dissolved in 1% DMSO solution in media. A 1% solution in media (FIG. 7) and staurosporine (FIG. 8) were used as controls. In early stages of apoptosis, one of the significant biochemical features is loss of plasma membrane phospholipid asymmetry due to translocation of phosphatidylserine (PS) from cytoplasmic to extracellular side. This characteristic allows detection of externalized PS by the specific binding of Annexin V (FITC-conjugated). Initiation of cell death will eventually result in the permeabilization of the cell membrane, allowing Pi to stain DNA within the nucleus. […] After incubation during 6 hours with 10 μM of compound 2 necrosis can be clearly proposed.
Annexin V/PI assay: Confluent Caki-1 cells were treated with either […], 0.1% DMSO or 5 μM of staurosporine for 6 h. […] Stained cells were analyzed by flow cytometry using Accuri C6 software (BD Biosciences, San Jose, Calif., USA).

AKT = assay: Protein kinase expression in Caki-1 whole cell lysates, AKT; assay type: cell-based, human; conditions: Caki-1, 5 μM, by 12 hours post-treatment
Method: Whole cell lysates of Caki-1 cells treated with compounds 2 or 6 were also evaluated for their effects on the expression levels of selected protein kinases, namely p90-RSK, AKT and MAPKAPK3. […] Because all three enzymes have been implicated in promoting cell migration and therefore are strong targets for anti-metastasis drugs, these findings predict that compound 2 would be effective in controlling metastatic potential of renal tumors.
Cell lysis and immunoblotting: Caki-1 cells were seeded into 10-cm dishes at a density of 2.2×10^6 and incubated for 24 hours. […]
The protein concentration was determined with BCA protein dye reagent (Pierce, Fisher Scientific Pittsburgh, Pa.). Samples were denatured with 5×SDS sample buffer (0.25% bromophenol blue, 0.5 M dithiothreitol (DTT), 50% glycerol 50% (v/v), 10% sodium dodecyl sulfate (SDS) followed by heating at 95° C. for 5 minutes. Proteins were separated by SDS-PAGE, transferred to a PVDF membrane (Millipore Corp.), and probed with MAPKAPK-3 antibody (Cell Signaling Technology, Danvers, Mass., USA), as well as β-actin antibody (Cell Signaling Technology, Danvers, Mass., USA). Immunoreactive bands of primary antibodies were detected using HRP goat anti-rabbit and secondary antibodies were detected with peroxidase-conjugated secondary antibody and detected by chemiluminescence (Pierce Biotechnology, Rockford, Ill.).

[1] = Method: The lethal dose (LD) and maximum tolerated doses (MTD) of compound 2 were evaluated in C57/BL6 mice (see experimental for details). […] Twenty-four hours after the last dose all mice used in the MTD study were euthanized and blood plasma, liver, spleen and kidneys were collected and used for histological analysis.
Lethal and maximum tolerated doses (LD and MTD): Determination of lethal and maximum tolerated doses (LD and MTD) in mice: The preliminary toxicity testing of compound 2 was performed in C57BL/6 female mice six to eight weeks of age, maintained in accordance with institutional guidelines at the University of Hawaii Cancer Center (UHCC) governing the care of laboratory animals (IACUC number: A3423-01). To determine the lethal dose, mice were treated for five consecutive days at dosages ranging from 1.5 mg/kg/day to 6 mg/kg/day. One mouse per dose was used. Mice were weighed every forty-eight hours, and sacrificed twenty-four hours after the last dose. […] In order to determine the maximum tolerated dose (MTD) the animals were monitored by trained individuals for pain and distress as appropriate for the animal, under conditions and by procedures established by the UHCC vivarium veterinarian staff and research personnel (BTE). The maximum tolerated dose (MTD) was determined by observing the progression of the mice treated at doses below the lethal dose. Body weights, changes in behavior and signs of distress were recorded. The dose at which neither debilitating effects nor sign of distress were observed was set as the MTD. More specifically the signs for distress monitored were: 1. Decreased food and water consumption; 2. […] Abnormal posture/positioning (e.g., head-pressing, hunched back); 4. Unkempt appearance (erected, matted, or dull haircoat); 5. Self-mutilation, gnawing at limbs; 6. Excessive self-imposed isolation/hiding. […] One group of mice was treated with the solvent (negative control).

MAPKAPK3 = assay: Protein kinase expression in Caki-1 whole cell lysates (Western blot), MAPKAPK3; assay type: cell-based, human; conditions: Caki-1, by 12 hours post-treatment
Method: The Caki-1 cells were then lysed and a Western blot analysis was performed with anti-MAPKAPK-3 antibody. Blots were probed with anti-β-Actin antibody as a control for protein loading.
Cell lysis and immunoblotting: Caki-1 cells were seeded into 10-cm dishes at a density of 2.2×10^6 and incubated for 24 hours. […] After microcentrifuging for 5 minutes at 4° C., pellets were treated with ice-cold lysis buffer with cell extraction buffer (BioSource, Camarillo, Calif.) containing 0.1% protease inhibitors and 1% phosphatase inhibitors cocktail (Fisher Scientific, Pittsburgh, Pa.) for 10 minutes, then sonicated for 10 seconds three times, and placed on ice. The lysed cells were centrifuged at 10,000×g at 4° C. for 10 minutes to remove the pellets representing the insoluble cell fraction.
The protein concentration was determined with BCA protein dye reagent (Pierce, Fisher Scientific Pittsburgh, Pa.). […]

## [(η-C5H5)2TiMe(μ-mba)Au(PPh3)] [Compound 2]
Caki-1 cells
  type of cell death induced: necrosis
AKT
  expression of AKT: dramatic decreases in expression
[1]; 10 mg/kg/day compound 6, 5 mg/kg/day compound 2
  necropsy findings at MTD: normal liver and slightly enlarged spleens
[1]; C57/BL6 mice, no visible signs of distress over seven days
  maximum tolerated dose (MTD): 5 mg/kg/day
[1]; C57/BL6 mice, once daily subcutaneous injection
  lethal dose (LD): 6 mg/kg/day
MAPKAPK3
  expression of MAPKAPK3: dramatic decreases in expression
